From patent US12157743B2, “Solid forms of Alpha-1062 gluconate” (priority 2021, dated 2024)
“Also recorded” adds a separate entry of the source.

Legend:
[1] = Water activity (aw) slurries in mixed aqueous/organic solvent systems, XRPD; assay type: physicochemical; conditions: for Result (solid form after slurry): ambient; for Water activity at which the form is the most stable form: from water activity slurries and RH stressing, Form C: above 0.12 aw up to the value
Description: (§1) To investigate the stability of the four pure crystalline forms of Alpha-1062 Gluconate, water activity (aw) slurries using a variety of mixed aqueous/organic solvent systems (Table 6) along with relative humidity stressing (Table 7) were used to define the regions of stability for the given hydrates of Alpha-1062 Gluconate.

[2] = Relative humidity stressing of solid samples, XRPD; assay type: physicochemical
Description: as §1

[3] = Dynamic vapor sorption (DVS) isotherm; assay type: physicochemical; conditions: for DVS hysteresis: 5 to 95 to 5% RH; for XRPD of post DVS sample (solid form): material recovered after DVS cycle ending at 5% RH
Description: As used herein, DVS (Dynamic Vapor Sorption) is a gravimetric technique to measure the rate and amount of absorption of a solvent by a sample under controlled conditions. […]

[4] = Polymorph screen: ambient slurries of Form A in solvents, XRPD; assay type: physicochemical; conditions: 14 d
Experimental: A polymorph screening study was initiated to investigate the presence and identity of various solid materials that may be possible for Alpha-1062 Gluconate. This study used lot CA19-1144 as the starting material and utilized various solvent systems and conditions to isolate and study the materials produced during the studies (Table 5). The various materials were analyzed by XRPD and the various solid forms identified as shown (FIG. 6).

[5] = Storage and XRPD reanalysis; assay type: physicochemical; conditions: reanalyzed
Description: Material G: Alpha-1062 Gluconate, Samples 8235-87-01 and 8235-100-02 (Table 15). Material G has been observed from evaporative experiments of both 1,4-dioxane and THF. […] Based on the spontaneous conversion, Material G is metastable with Form B at that condition. Material G was not observed during any of the water activity slurries or relative humidity work.
Amorphous: Alpha-1062 Gluconate, sample 8235-76-13 (Table 16) has been observed from slow evaporation from methanol (Table 5). […] No significant impurity increases were observed by ^1H NMR. • Thermal Analysis (FIG. 35). A cyclic DSC was conducted to determine the glass transition (Tg) temperature of the amorphous solid. The glass transition temperature was determined to be near 41° C. Decomposition was observed upon continued heating with no nucleation.

[6] = steady-state, human brain vs blood; cited from earlier work
[7] = Heat / vacuum stressing analysed by XRPD; assay type: physicochemical
Experimental: Form B: Alpha-1062 Gluconate, Sample 8235-82-08 (Table 10). Form B is a tetrahydrate crystalline lattice. It appears that at least one of the four water sites in the crystal lattice is somewhat labile. […] The formula unit volume of 772 Å^3 calculated from the indexing results is larger than Form A by 84 Å^3. […] A broad endotherm with an onset of 66° C. (concurrent with weight loss in the TGA) is observed in the DSC consistent with desolvation. […] Upon desorption, 1.8% weight loss from 95-15% RH followed by 6.8% weight loss from 15-5% RH was observed. The DVS data was corrected for water content measured by KF at 57% RH (FIG. 18). A stable plateau of between 3.6 and 3.9 mol/mol of water for Form B is evident between 15 and 85% RH.
Form C: Alpha-1062 Gluconate, Sample 8235-87-02 (Table 11). Form C was determined to be a monohydrate crystal lattice occupied at only about 0.4 to 0.5 mol/mol of water. […] The XRPD pattern was successfully indexed by a single primitive monoclinic unit cell. The formula unit volume of 706 Å^3 calculated from the indexing results is larger than Form A by 18 Å^3. […] An endotherm with an onset of 119° C. is observed in the DSC. • Form C (sample 8235-92-04) was held at 11% RH for seven days and analyzed by XRPD and DSC for comparison (sample 8296-08-01). […] The DVS data was corrected for water content measured by KF at 11% RH (FIG. 25). […]

[8] = IPA/H2O 97:03 v/v, 0.31 aw, 13 d
[9] = MEK/H2O 98:02 v/v, 0.42 aw, 13 d
[10] = water activity slurries and RH stressing

Question: For `COc1ccc2c3c1O[C@H]1C[C@@H](OC(=O)c4ccccc4)C=C[C@@]31CCN(C)C2.O=C(O)C(O)C(O)C(O)C(O)CO` [Form A, Alpha-1062 gluconate], which “Result (solid form after slurry)” value ([1]; MEK/H2O 98:02 v/v, 0.42 aw, 1 d) is on record?
Answer: C + B

Question: And the “Result (solid form after slurry)” value ([1]; MEK/H2O 98:02 v/v, 0.42 aw, 2 d)?
Answer: C + B

Question: And the “Result (solid form after slurry)” value ([1]; MEK/H2O 99:01 v/v, 0.27 aw, 7 d)?
Answer: C + A

Question: And the “Water activity at which the form is the most stable form” value [1]?
Answer: less than 0.12 aw

Question: And the “Result (solid form by XRPD)” value ([2]; 43% RH, 5 d)?
Answer: kinetically stable

Question: What about the “Result (solid form by XRPD)” value ([2]; 75% RH, 1 d) of the same compound?
Answer: D + minor A

Question: What about the “Result (solid form by XRPD)” value ([2]; 75% RH, 2 d) of the same compound?
Answer: D + minor B

Question: And the “Hygroscopicity (DVS assessment)” value [3]?
Answer: significant hygroscopicity above 75% RH

Question: What about the DVS hysteresis [3] of the same compound?
Answer: Hysteresis was observed

Question: What about the DVS hysteresis ([3]; listed as CA19-1144) of the same compound?
Answer: hysteresis observed

Question: What about the DVS wt. gain ([3]; from 5 to 75% RH (sorption)) of the same compound?
Answer: 0.57 % wt.

Question: And the DVS wt. gain ([3]; from 5 to 75% RH (sorption), listed as CA19-1144)?
Answer: 0.57% wt. gain from 5 to 75% RH

Question: And the DVS wt. gain ([3]; from 75 to 85% RH (sorption))?
Answer: 2.97 % wt.

Question: And the DVS wt. gain ([3]; from 75 to 85% RH (sorption), listed as CA19-1144)?
Answer: 2.96% wt. gain from 75 to 85% RH

Question: What about the DVS wt. loss ([3]; from 85 to 5% RH (desorption)) of the same compound?
Answer: 2.98% wt. loss from 85 to 5% RH

Question: What about the DVS wt. gain ([3]; from 85 to 95% RH (sorption)) of the same compound?
Answer: 8.7 % wt.

Question: What about the DVS wt. gain ([3]; from 85 to 95% RH (sorption), listed as CA19-1144) of the same compound?
Answer: 8.67% wt. gain from 85 to 95% RH

Question: What about the DVS wt. loss ([3]; from 95 to 85% RH (desorption)) of the same compound?
Answer: 1.73% wt. loss from 95 to 85% RH

Question: And the “XRPD of post DVS sample (solid form)” value [3]?
Answer: Form A+minor peaks of Form B

Question: What about the “XRPD of post DVS sample (solid form)” value ([3]; listed as CA19-1144) of the same compound?
Answer: Form A + B (trace)

Question: And the “Water gain at stable desorption plateau” value ([3]; weight within stable plateau on desorption)?
Answer: more than 3 mol/mol

Question: What about the “Result (solid form after slurry)” value ([4]; EtOH) of the same compound?
Answer: C + A

Question: And the “Result (solid form after slurry)” value ([4]; acetone)?
Answer: C + D

Question: Which “Solid form by XRPD on reanalysis” value ([5]; 5 weeks) does the source give for `COc1ccc2c3c1O[C@H]1C[C@@H](OC(=O)c4ccccc4)C=C[C@@]31CCN(C)C2.O=C(O)C(O)C(O)C(O)C(O)CO` [amorphous Alpha-1062 Gluconate, Alpha-1062 gluconate] here?
Answer: amorphous

Question: What about the “Solid form by XRPD on reanalysis” value ([5]; 5 weeks, listed as Amorphous) of the same compound?
Answer: remain amorphous

Question: And the “Solid form by XRPD on reanalysis” value ([5]; 13 days)?
Answer: Form B + C

Question: And the “Solid form by XRPD on reanalysis” value ([5]; 13 days, listed as Amorphous)?
Answer: spontaneously crystallized to a mixture of Forms B and C

Question: Which “Result (solid form after slurry)” value ([1]; MEK/H2O 97:03 v/v, 0.52 aw, 7 d) does the source give for `COc1ccc2c3c1O[C@H]1C[C@@H](OC(=O)c4ccccc4)C=C[C@@]31CCN(C)C2.O=C(O)C(O)C(O)C(O)C(O)CO` [Forms B + D, Alpha-1062 gluconate] here?
Answer: B + C

Question: For `COc1ccc2c3c1O[C@H]1C[C@@H](O)C=C[C@@]31CCN(C)C2` [galantamine], which “brain-to-blood concentration ratio (BBCR)” value [6] is on record?
Answer: < 2

Question: Which “Result (solid form by XRPD)” value ([2]; 0% RH, P2O5, 1 d) does the source give for `COc1ccc2c3c1O[C@H]1C[C@@H](OC(=O)c4ccccc4)C=C[C@@]31CCN(C)C2.O=C(O)C(O)C(O)C(O)C(O)CO` [Form C + B, Alpha-1062 gluconate] here?
Answer: C+ A

Question: Which results are given for `COc1ccc2c3c1O[C@H]1C[C@@H](OC(=O)c4ccccc4)C=C[C@@]31CCN(C)C2.O=C(O)C(O)C(O)C(O)C(O)CO` [Form D, Alpha-1062 gluconate]?
Answer: Result (solid form after slurry) [1, 8]: C + B; Result (solid form after slurry) [1, 9]: C + B; Water activity at which the form is the most stable form [1]: does not appear stable at any of the conditions evaluated; Result (solid form by XRPD) ([2]; 75% RH, 1 d): Form D + minor B; Relative humidity at which the form converts to Form C [2, 10]: < 52 % RH; Relative humidity of extended exposure at which the form converts to Form B [2, 10]: ≥ 52 % RH

Question: Which “Solid form by XRPD on reanalysis” value ([5]; 5 weeks) does the source give for `COc1ccc2c3c1O[C@H]1C[C@@H](OC(=O)c4ccccc4)C=C[C@@]31CCN(C)C2.O=C(O)C(O)C(O)C(O)C(O)CO` [Material G, Alpha-1062 gluconate] here?
Answer: partially converted to Form B; also recorded: Material G + Form B

Question: Which results are given for `COc1ccc2c3c1O[C@H]1C[C@@H](OC(=O)c4ccccc4)C=C[C@@]31CCN(C)C2.O=C(O)C(O)C(O)C(O)C(O)CO` [Form B, Alpha-1062 gluconate]?
Answer: Result (solid form after slurry) [1, 8]: C + B; Result (solid form after slurry) [1, 9]: C + B; Water activity at which the form is the most stable form [1]: Above 0.5 aw; Water activity of solvent systems in which the form was observed ([1]; in equilibrium Form B/Form C between 0.31 and 0.52 aw): above 0.52 aw; Result (solid form by XRPD) ([2]; 0% RH, P2O5, 1 d): dehydrate to Form A; Result (solid form by XRPD) ([2]; 57% RH, 4 d): remained Form B; Hygroscopicity (DVS assessment) [3]: limited hygroscopicity; DVS wt. loss ([3]; from 15-5% RH (desorption)): 6.8% wet loss from 15-5% RH % wt.; XRPD of post DVS sample (solid form) [3]: anhydrous Form A; Solid form by XRPD after heating ([7]; 40-75° C., 10 min (in DSC)): partial dehydration and conversion to a mixture of Forms D and C; also recorded: Form D + C + peak

Question: For `COc1ccc2c3c1O[C@H]1C[C@@H](OC(=O)c4ccccc4)C=C[C@@]31CCN(C)C2.O=C(O)C(O)C(O)C(O)C(O)CO` [Form D + B, Alpha-1062 gluconate], which “Result (solid form by XRPD)” value ([2]; 75% RH, 1 d) is on record?
Answer: D + B

Question: With `COc1ccc2c3c1O[C@H]1C[C@@H](OC(=O)c4ccccc4)C=C[C@@]31CCN(C)C2.O=C(O)C(O)C(O)C(O)C(O)CO` [Form D + A, Alpha-1062 gluconate] as the compound, how does the “Result (solid form by XRPD)” value ([2]; 75% RH, 4 d) read?
Answer: B + D

Question: Which “Result (solid form after slurry)” value [1, 8] does the source give for `COc1ccc2c3c1O[C@H]1C[C@@H](OC(=O)c4ccccc4)C=C[C@@]31CCN(C)C2.O=C(O)C(O)C(O)C(O)C(O)CO` [Form C, Alpha-1062 gluconate] here?
Answer: C + B

Question: What about the “Result (solid form after slurry)” value [1, 9] of the same compound?
Answer: C + B

Question: What about the “Water activity at which the form is the most stable form” value [1] of the same compound?
Answer: up to 0.5 aw

Question: What about the “Result (solid form by XRPD)” value ([2]; 0% RH, P2O5, 1 d) of the same compound?
Answer: C + minor A

Question: What about the “Result (solid form by XRPD)” value ([2]; 11% RH, 4 d) of the same compound?
Answer: remained Form C

Question: And the “Result (solid form by XRPD)” value ([2]; 11% RH, 7 d)?
Answer: remained Form C

Question: What about the “Hygroscopicity (DVS assessment)” value [3] of the same compound?
Answer: significant hygroscopicity above 75% RH

Question: What about the DVS hysteresis [3] of the same compound?
Answer: hysteresis observed

Question: What about the “Water retained after DVS” value ([3]; DVS corrected for KF water content at 11% RH) of the same compound?
Answer: ~1.4 mol/mol

Question: And the DVS wt. gain ([3]; from 5-65% RH (sorption))?
Answer: 0% wt. gain from 5-65% RH

Question: And the DVS wt. gain ([3]; from 5 to 75% RH (sorption))?
Answer: no significant weight gain

Question: And the DVS wt. retained ([3]; from 75-5% RH (desorption))?
Answer: ~3% wt. retained from 75-5% RH

Question: What about the “XRPD of post DVS sample (solid form)” value [3] of the same compound?
Answer: mixture of Forms C and B; also recorded: Form C + B

Question: What about the “Solid form by XRPD after vacuum storage” value ([7]; vacuum, 45° C., 3 hrs) of the same compound?
Answer: remained Form C with the presence of a minor amount of Form A
